Assay results published in EPA's CvTdb concentration-time database.

Assays:
Rat [1] = assay: concentration in plasma after dosing; conditions: dosed: 2-Hydroxy-4-methoxybenzophenone, 500 mg/kg, oral, Female, F344
Mouse [2] = assay: concentration in plasma after dosing; conditions: 2 h; dosed: 2-Hydroxy-4-methoxybenzophenone; 500 mg/kg; oral; Female; B6C3F1
Mouse [3] = assay: concentration in plasma after dosing; conditions: 0.25 h; dosed: 2-Hydroxy-4-methoxybenzophenone; 250 mg/kg; oral; Male; B6C3F1
rat [4] = assay: concentration in expired air after dosing; negative times count back from the end of exposure; conditions: dosed: 1,1-dichloroethylene, inhalation, duration: 3 hr, male, Sprague-Dawley
Rat [5] = assay: concentration in plasma after dosing; conditions: 0.25 h; dosed: Primidone; 30 mg/kg; oral; Female; F344
Rat [6] = assay: concentration in plasma after dosing; conditions: dosed: 2,4-Dichlorophenoxyacetic acid, 2.0 mg/kg, iv, Male, Sprague-Dawley
Rat [7] = assay: concentration in plasma after dosing; conditions: 0.5 h; dosed: alpha-Thujone; 50 mg/kg; oral; Female; Harlan Sprague Dawley
Rat [8] = assay: concentration in brain after dosing; conditions: 10 min; dosed: alpha-Thujone; 50 mg/kg; oral; Female; Harlan Sprague Dawley
Rat [9] = assay: concentration in plasma after dosing; conditions: 12 h; dosed: alpha-Thujone; 50 mg/kg; oral; Female; Harlan Sprague Dawley
Rat [10] = assay: concentration in brain after dosing; conditions: 10 min; dosed: alpha-Thujone; 25 mg/kg; oral; Male; Harlan Sprague Dawley
Rat [11] = assay: concentration in kidney after dosing; conditions: 48 h; dosed: Perfluorohexane-1-sulphonic acid – potassium salt; 16 mg/kg; oral; Female; Harlan Sprague Dawley
Rat [12] = assay: concentration in liver after dosing; conditions: 96 h; dosed: Perfluorohexane-1-sulphonic acid – potassium salt; 16 mg/kg; oral; Female; Harlan Sprague Dawley
Rat [13] = assay: concentration in plasma after dosing; conditions: dosed: Pyridine, 5 mg/kg, iv, Male, F344
Rat [14] = assay: concentration in plasma after dosing; conditions: 0.25 h; dosed: Pyridine; 10 mg/kg; iv; Male; F344
Rat [15] = assay: concentration in plasma after dosing; conditions: dosed: Pyridine, 25 mg/kg, oral, Male, F344
Rat [16] = assay: concentration in plasma after dosing; conditions: 2 h; dosed: Pyridine; 5 mg/kg; oral; Male; F344

O=C(c1ccccc1)c1ccc(O)cc1O [2,4-Dihydroxybenzophenone]
Rat [1]
Conditions | concentration in plasma [ng/mL]
10 h | 150
10 min | 258

Conditions | concentration in plasma [ng/mL]
Mouse [2] | 135
Mouse [3] | 1490

C=C(Cl)Cl [1,1-dichloroethylene]
rat [4]
Conditions | concentration in expired air [ppm]
0.1527 h, 150 ppm | 5.19
0.2485 h, 150 ppm | 3.34
0.2565 h, 25 ppm | 3.35
0.3921 h, 25 ppm | 3.42
0.3921 h, 150 ppm | 3.42
0.4997 h, 150 ppm | 3.48
0.5037 h, 25 ppm | 3.48
9 s, 150 ppm | 121
88 s, 75 ppm | 12.1
205 s, 75 ppm | 6.41

rat [4], during exposure
Conditions | concentration in expired air [ppm]
-15 s, 75 ppm | 63.3
-2.933 h, 75 ppm | 46.2
-2.927 h, 150 ppm | 71.9
-2.926 h, 300 ppm | 190
-2.925 h, 25 ppm | 13.3
-2.861 h, 75 ppm | 48.8
-2.858 h, 25 ppm | 12.4
-2.856 h, 150 ppm | 76.7
-2.798 h, 75 ppm | 52.3
-2.794 h, 25 ppm | 14.7
-2.792 h, 150 ppm | 82.7
-2.733 h, 150 ppm | 88.4
-2.73 h, 75 ppm | 54.3
-2.726 h, 25 ppm | 15
-2.658 h, 75 ppm | 54.9
-2.654 h, 150 ppm | 93.5
-2.651 h, 25 ppm | 16.6
-2.599 h, 75 ppm | 56.2
-2.595 h, 150 ppm | 97.7
-2.591 h, 25 ppm | 17.9
-2.539 h, 75 ppm | 57.5
-2.535 h, 25 ppm | 18.9
-2.531 h, 150 ppm | 104
-2.475 h, 75 ppm | 58.8
-2.46 h, 25 ppm | 19.6
-2.456 h, 150 ppm | 107
-2.408 h, 75 ppm | 58.9
-2.4 h, 25 ppm | 19.6
-2.396 h, 150 ppm | 109
-2.336 h, 25 ppm | 20.6
-2.336 h, 75 ppm | 59.9
-2.336 h, 150 ppm | 108
-2.26 h, 75 ppm | 59.3
-2.257 h, 150 ppm | 110
-2.256 h, 25 ppm | 19.7
-2.197 h, 150 ppm | 112
-2.196 h, 75 ppm | 57.4
-2.189 h, 25 ppm | 19.7
-2.137 h, 150 ppm | 110
-2.129 h, 75 ppm | 60.6
-2.125 h, 25 ppm | 17.6
-2.061 h, 25 ppm | 20.1
-2.061 h, 75 ppm | 61
-2.058 h, 150 ppm | 111
-1.998 h, 150 ppm | 111
-1.997 h, 75 ppm | 60.7
-1.993 h, 25 ppm | 20.5
-1.858 h, 150 ppm | 111
-1.857 h, 75 ppm | 59.8
-1.854 h, 25 ppm | 20.6
-1.738 h, 75 ppm | 60.5
-1.735 h, 150 ppm | 112
-1.73 h, 25 ppm | 20.9
-1.598 h, 75 ppm | 60.6
-1.595 h, 25 ppm | 21.3
-1.595 h, 150 ppm | 113
-1.484 h, 150 ppm | 114
-1.483 h, 25 ppm | 21.4
-1.479 h, 75 ppm | 61.3
-1.344 h, 25 ppm | 21.5
-1.344 h, 150 ppm | 114
-1.343 h, 75 ppm | 60.7
-1.209 h, 150 ppm | 115
-1.208 h, 75 ppm | 60.8
-1.204 h, 25 ppm | 21.5
-1.085 h, 25 ppm | 21.9
-1.085 h, 150 ppm | 117
-1.08 h, 75 ppm | 61.2
-1 s, 25 ppm | 22.2
-0.9371 h, 25 ppm | 21.7
-0.9328 h, 75 ppm | 61.6
-0.9261 h, 150 ppm | 117
-0.8014 h, 75 ppm | 62.6
-0.7986 h, 150 ppm | 119
-0.7936 h, 25 ppm | 22.1
-0.6591 h, 150 ppm | 118
-0.6578 h, 75 ppm | 62
-0.6461 h, 25 ppm | 21.2
-0.5396 h, 150 ppm | 120
-0.5384 h, 75 ppm | 63.7
-0.5345 h, 25 ppm | 22.2
-0.399 h, 25 ppm | 22.6
-0.3988 h, 75 ppm | 63.1
-0.3961 h, 150 ppm | 119
-0.2646 h, 150 ppm | 120
-0.2633 h, 75 ppm | 63.2
-0.2555 h, 25 ppm | 22.1
-0.1359 h, 25 ppm | 22.4
-0.1358 h, 75 ppm | 63.9
-0.1331 h, 150 ppm | 121

CCC1(c2ccccc2)C(=O)NCNC1=O [Primidone]
Conditions | concentration in plasma [ng/mL]
Rat [5] | 15100

O=C(O)COc1ccc(Cl)cc1Cl [2,4-Dichlorophenoxyacetic acid]
Rat [6]
Conditions | concentration in plasma [ng/mL]
0.25 h | 15300
0.5 h | 6490
0.75 h | 6000
2 h | 1910
2.5 h | 720
2.5 min | 26200
3 h | 282

CC(C)[C@]12CC(=O)[C@H](C)[C@H]1C2 [alpha-Thujone]
Conditions | concentration in brain [ng/g] | concentration in plasma [ng/mL]
Rat [7] | – | 433
Rat [8] | 2340 | –
Rat [9] | – | 18.3
Rat [10] | 2000 | –

O=S(=O)([O-])C(F)(F)C(F)(F)C(F)(F)C(F)(F)C(F)(F)C(F)(F)F.[K+] [Perfluorohexane-1-sulphonic acid – potassium salt]
Conditions | concentration in kidney [ng/g] | concentration in liver [ng/g]
Rat [11] | 12000 | –
Rat [12] | – | 6730

c1ccncc1 [Pyridine]
concentration in plasma [ng/mL]
Conditions | 0.05 h | 4 h | 5 min
Rat [13] | 4920 | 1440 | –
Rat [15] | – | 15500 | 4220

Conditions | concentration in plasma [ng/mL]
Rat [14] | 4870
Rat [16] | 2710
